Consider nine molecules from ChEMBL document CHEMBL1201862, “PubChem BioAssay data set” (2004).

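Cells were grown in 96-well plates and exposed to each compound for 48 hours at five concentrations; endpoints were interpolated linearly between bracketing concentrations, or set to the highest concentration if not reached. The concentration for 50% growth inhibition is given as GI50.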 Calls of active or inactive are those of the source. Cut-off read from the data, not from the text of the source: active = GI50 up to about 1.1 µM and inactive = higher.

Test in all cases: inhibition of tumour cell growth, NCI panel, 48 h
Assay [1] concerns SNB-19.
Assay [2] has as its system COLO 205.
Assay [3] has as its system MDA-MB-435.
In assay [4] the test system is OVCAR-4.
The test system of assay [5] is SK-OV-3.
For assay [6], the system named is DU-145.
Assay [7] concerns NCI-H23.
Assay [8] relates to SF-295.
The subject of assay [9] is SN12C.
Assay [10] concerns HOP-92.
In assay [11] the test system is OVCAR-3.
Assay [12] deals with SK-MEL-2.
Assay [13] has as its system A549.
Assay [14] has as its system CCRF-CEM.
Assay [15] relates to SW-620.
Assay [16] has as its system NCI-H522.
The subject of assay [17] is SF-268.
Assay [18] has as its system A498.

`CCOc1cc(NC(C)=O)ccc1C(=O)NN1C(=O)C(Oc2ccccc2)C1c1ccc(O)c(OC)c1` (stereo not drawn): the GI50 in assay [1] was > 100 µM (inactive); in assay [2], 30.3 µM (inactive); in assay [3], 42.4 µM (inactive); in assay [4] it was 31.3 µM (inactive); in assay [5], > 100 µM (inactive); in [6], 78 µM (inactive). The GI50 in [7] was 30.8 µM (inactive); in assay [8] it was 66.4 µM (inactive); in [9] it was 28 µM (inactive); in [10] it was 6.04 µM (inactive); in [11], 41.5 µM (inactive); in assay [12], 26.9 µM (inactive). In addition, the values for the GI50 in [13], in [14] and in [15] were 56.5 µM (inactive), 22.5 µM (inactive) and 77.4 µM (inactive), respectively.

In the case of `Cn1nnc2c3c(N(CCO)CCO)ccnc3ccc21`, the GI50 was 49.1 µM (inactive) in assay [1]; 95.9 µM (inactive) in assay [2]; > 100 µM (inactive) in assay [3]; > 10 µM (inactive) in [16]; > 100 µM (inactive) in assay [4]; > 100 µM (inactive) in assay [5]. Also, the GI50 was > 100 µM (inactive) in assay [6]; 97.9 µM (inactive) in assay [7]; > 100 µM (inactive) in assay [8]; > 100 µM (inactive) in assay [9]; 87.5 µM (inactive) in [17]; > 100 µM (inactive) in assay [11]. The GI50 in assay [12], in assay [13], in [14] and in [15] was > 100 µM (inactive) throughout.

As to `[N-]=[N+]=NC[C@H]1OCO[C@H](CN=[N+]=[N-])[C@@H](OCCOCCCl)[C@@H]1OCCOCCCl`, the GI50 in [1], in [2], in assay [3], in assay [16], in assay [4] and in assay [5] was > 100 µM (inactive) throughout. Further, the GI50 in assay [6], in assay [7], in [8], in assay [9], in assay [17] and in assay [11] was > 100 µM (inactive) in each case. For the same molecule, the GI50 in assay [12], in assay [13], in assay [14] and in [15] was > 100 µM (inactive) in each case.

Turning to `CCOC(=O)C(=[N+]=[N-])C(=O)C1(C(=O)OCC)CCN(C(=O)c2ccccc2)C1=O` (stereo not drawn), the GI50 in assay [1], in [2], in assay [16], in assay [4], in [18] and in assay [5] was > 100 µM (inactive) in each case. The GI50 in [6], in [7], in [8], in assay [9], in assay [17] and in [10] was > 100 µM (inactive) throughout. Moreover, the GI50 in assay [12], in [13] and in assay [14] was > 100 µM (inactive) each time.

For the molecule `COc1ccc(C(=O)N2CCN(c3ccc4[nH]c(=O)oc4c3)CC2)cc1`, the GI50 in assay [1] was > 100 µM (inactive); in assay [2] it was > 100 µM (inactive); in [3] it was > 100 µM (inactive); in assay [16], 53.1 µM (inactive); in assay [4], 84.1 µM (inactive); in assay [5], > 100 µM (inactive). For the same molecule, the GI50 in assay [6], in assay [7], in [8], in assay [9], in [17] and in assay [10] was > 100 µM (inactive) in each case. Besides, the GI50 in [11], in assay [12], in assay [13], in assay [14] and in [15] was > 100 µM (inactive) in each case.

`CC(C)/C(Cl)=N\OC(=O)Nc1ccccc1F`: the GI50 is > 42.9 µM (inactive) in assay [1]; 2.03 µM (inactive) in [2]; 17.3 µM (inactive) in assay [4]; 14.9 µM (inactive) in [18]; 19.2 µM (inactive) in assay [5]; 16.4 µM (inactive) in assay [6]. Also, the GI50 in [7] is 17.7 µM (inactive); in [8] it was 16.3 µM (inactive); in [9], 10 µM (inactive); in [17], 21 µM (inactive); in [10], 2.16 µM (inactive); in [11] it was 17.7 µM (inactive). For the same molecule, the GI50 in [12] is 18.1 µM (inactive); in assay [13] it was 18.7 µM (inactive); in assay [14], 0.741 µM (active); in [15] it was 1.88 µM (inactive).

For the molecule `Nc1ncnc2c1ncn2[C@@H]1C[C@@H]1CO`, the GI50 in assay [1], in assay [3], in [16], in assay [18], in assay [7] and in assay [8] was > 100 µM (inactive) each time. Also, the GI50 in [9], in [11], in [12], in [13], in [14] and in [15] was > 100 µM (inactive) throughout.

With `CC1(C)OCC2(CO1)CSCCCSCC1(COC(C)(C)OC1)CSCCCSC2`, the GI50 in [1], in assay [2], in assay [3], in [16], in assay [4] and in assay [5] was > 100 µM (inactive) in each case. Also, the GI50 in [6], in assay [7], in assay [8], in assay [9], in assay [17] and in assay [10] was > 100 µM (inactive) in each case. Besides, the GI50 in assay [11], in [13], in assay [14] and in assay [15] was > 100 µM (inactive) each time.

For `CCOC(=O)c1nnsc1NC(=O)Nc1ccc(Cc2ccc(NC(=O)Nc3snnc3C(=O)OCC)cc2)cc1`, the GI50 is 39.1 µM (inactive) in [1]; > 100 µM (inactive) in assay [2]; 93.1 µM (inactive) in assay [3]; 35.6 µM (inactive) in assay [4]; 21.8 µM (inactive) in [5]; 32.8 µM (inactive) in assay [6]. In addition, the GI50 was 43.6 µM (inactive) in assay [7]; 70 µM (inactive) in assay [8]; 28.3 µM (inactive) in assay [9]; > 100 µM (inactive) in assay [17]; > 100 µM (inactive) in assay [11]; > 100 µM (inactive) in assay [12]. The GI50 was 46.1 µM (inactive) in assay [13], > 100 µM (inactive) in [14] and > 100 µM (inactive) in assay [15].
